The nature of assay [1]: Compound was tested for the inhibition of Escherichia coli glutamyl-t-RNA synthetase.
Assay [2] in a line: Compound was tested for the inhibition of aminoacyl tRNA Synthetase.

Usually Ki stands for the equilibrium dissociation constant of an inhibitor or competing ligand from its target. With `NC(CCC(=O)O)C(=O)OC[C@H]1OC(O)[C@H](O)[C@@H]1O` (stereo not given in full), in assay [1], the inhibition constant (Ki) was 500 µM.

`NC(CCC(=O)O)C(=O)OC[C@@H]1CCCN1` (stereo not given in full) displayed a Ki in assay [1] of 11400 µM.

Turning to `NC(CCC(=O)O)C(=O)OC[C@H]1CCCN1` (stereo not given in full), the Ki in assay [1] is 380 µM.

Turning to `NC(CCC(=O)O)C(=O)OC[C@H]1C[C@@H](O)C[C@@H](CO)N1` (stereo partly drawn) [4-ammonio-5-{[(2R,4S,6S)-4-hydroxy-6-(hydroxymethyl)piperidin-2-yl]methoxy}-5-oxopentanoate], in assay [1], the Ki turned out to be 20 µM.

`COc1cc(CNC(=O)CCCC/C=C/C(C)C)ccc1O` [Zostrix] displayed a Ki in assay [2] of 42 µM.

Values taken from BindingDB's records for doi:10.1016/S0960-894X(97)00434-4 (1997).
